Measured values published in patent US9040713B2, “Methods of managing blood sugar levels and compositions related thereto” (EMORY UNIVERSITY, priority 2010, dated 2015).
Where “and” joins values, the source holds several entries; their conditions need not be identical. Identical values can stand only once.

Experiments:
[1] = biological target: IR (Mus musculus, UniProt P15208); assay: IR phosphorylation and downstream signaling in mouse tissues; assay type: in vivo; details: for IR and ERK phosphorylations in liver and muscle: 5 mg/kg oral, 1 and 2 h
Sequence of IR (Mus musculus, UniProt P15208) (P15208 28-1372): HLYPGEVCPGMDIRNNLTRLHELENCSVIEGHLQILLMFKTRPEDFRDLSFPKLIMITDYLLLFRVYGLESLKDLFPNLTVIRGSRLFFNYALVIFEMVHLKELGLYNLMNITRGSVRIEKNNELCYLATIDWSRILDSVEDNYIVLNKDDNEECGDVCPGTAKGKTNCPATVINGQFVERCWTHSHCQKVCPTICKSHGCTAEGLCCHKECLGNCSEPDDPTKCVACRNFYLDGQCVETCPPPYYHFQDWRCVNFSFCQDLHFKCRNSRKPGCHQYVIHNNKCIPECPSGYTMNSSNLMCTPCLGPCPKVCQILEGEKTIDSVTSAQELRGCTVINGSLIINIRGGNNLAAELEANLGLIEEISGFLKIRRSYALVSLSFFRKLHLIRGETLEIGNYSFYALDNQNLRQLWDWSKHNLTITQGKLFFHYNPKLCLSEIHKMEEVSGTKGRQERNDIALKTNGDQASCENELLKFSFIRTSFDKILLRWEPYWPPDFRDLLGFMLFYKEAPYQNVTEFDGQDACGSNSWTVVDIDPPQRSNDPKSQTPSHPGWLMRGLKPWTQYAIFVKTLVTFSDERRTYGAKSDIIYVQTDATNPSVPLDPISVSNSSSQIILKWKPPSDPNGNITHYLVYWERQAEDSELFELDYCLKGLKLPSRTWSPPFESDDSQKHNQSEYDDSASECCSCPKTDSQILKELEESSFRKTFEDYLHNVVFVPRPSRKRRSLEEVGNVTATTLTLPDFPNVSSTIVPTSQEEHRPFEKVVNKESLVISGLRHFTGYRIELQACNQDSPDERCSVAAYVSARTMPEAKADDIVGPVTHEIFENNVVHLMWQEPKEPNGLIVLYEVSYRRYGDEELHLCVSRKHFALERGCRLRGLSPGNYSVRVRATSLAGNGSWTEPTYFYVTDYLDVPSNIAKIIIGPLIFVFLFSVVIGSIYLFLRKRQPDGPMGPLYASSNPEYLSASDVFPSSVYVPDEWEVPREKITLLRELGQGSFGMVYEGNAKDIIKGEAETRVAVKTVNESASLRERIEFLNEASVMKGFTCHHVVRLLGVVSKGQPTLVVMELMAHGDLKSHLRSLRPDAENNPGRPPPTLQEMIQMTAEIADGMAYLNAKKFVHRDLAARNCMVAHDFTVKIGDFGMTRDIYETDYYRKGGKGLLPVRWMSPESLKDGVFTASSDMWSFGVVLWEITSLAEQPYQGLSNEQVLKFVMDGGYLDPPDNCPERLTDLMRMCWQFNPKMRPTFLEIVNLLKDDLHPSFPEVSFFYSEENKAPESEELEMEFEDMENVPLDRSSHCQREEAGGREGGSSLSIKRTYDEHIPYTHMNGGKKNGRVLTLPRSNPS
Procedure: (A) DDN reduces blood glucose in C57BL/6J mice. […] Blood glucose was monitored before and after dosing at various time points as indicated (*: P<0.05, **: P<0.01; ***: P<0.001, n=10-13, Two-way ANOVA vs vehicle). (B) DDN provokes IR phosphorylation and its downstream signaling in C57BL/6J mice. Three month-old C57BL/6J mice were starved for 12 h and then orally administrated with vehicle (0.5% methylcellulose), DDN (20 mg/kg) or 2NH2-NQ (20 mg/kg). Cell lysates were prepared from liver and muscle tissues collected at 3, 4, and 5 h after drug administration and analyzed by immunoprecipitation and immunoblotting. (C) DDN quickly activates IR phosphorylation and its downstream signaling. Three-month-old C57BL/6J mice were starved for 12 h and then injected with vehicle, 5 mg/kg DDN or 5 mg/kg 2NH2-NQ through vena cava. After 5 min, the liver was collected and analyzed by immunobloting using specific antibodies.
Three-month-old mice were starved for 12 h and then orally administrated with vehicle (0.5% methylcellulose) or DDN (5 mg/kg). Cell lysates were prepared from liver and muscle tissues collected at 1 and 2 h after drug administration and analyzed by immunoprecipitation and immunoblotting. […] Three-month-old mice were starved for 12 h and then orally administrated with vehicle (0.5% methylcellulose) or DDN (5 mg/kg). Cell lysates were prepared from liver and muscle tissues collected at 1 and 2 h after drug administration and analyzed by immunoprecipitation and immunoblotting. (C) Hypoglycemic function of DDN in db/db mice. The animals were starved for 12 h and then orally injected with vehicle (0.5% methylcellulose) or DDN (5 mg/kg). […] Blood glucose was monitored before and after drug administration at 1-hour intervals (*: P<0.05, **: P<0.01, n=5, Two-way ANOVA vs vehicle). (D) DDN improves the glucose tolerance in ob/ob mice. The animals were starved for 12 h and then orally dosed with vehicle (0.5% methylcellulose) or DDN (5 mg/kg). […] A bonus of glucose (2 gm/kg) was injected intraperitoneally 1 hour later. Blood glucose was measured at 30-min intervals (*: P<0.05, **:P<0.01, n=5, Two-way ANOVA vs vehicle control).
(A) 4524-E7 provokes IR phosphorylation in various tissues of mice. Three-month-old C57BL/6J mice were starved for 12 h and then dosed with vehicle (0.5% methylcellulose) or 4524-E7 (20 mg/kg). Cell lysates from liver, muscle, and WAT were prepared at 3, 4, and 5 h after drug administration and analyzed by immunoblotting. (B) Basal and insulin-stimulated hepatic glucose production rates were measured by hyperinsulinemic-euglycemic clamp. […] (C) Hypoglycemic effect of 4524-E7 in C57BL/6J mice. C57BL/6J mice were starved for 12 h and then orally administrated with vehicle (0.5% methylcellulose) or 4524-E7 (5 mg/kg). Blood glucose was monitored at different time points as indicated (n=8, *: P<0.05, two-way ANOVA). (D) Hypoglycemic effect in db/db mice. db/db mice were starved for 12 h and then orally injected with vehicle (0.5% methylcellulose) or 4524-E7 (5 mg/kg). Blood glucose was monitored at different time points as indicated (n=5, *: P<0.05, two-way ANOVA). (E) Glucose tolerance test in ob/ob mice. The mice were starved for 12 hours and then orally administrated with vehicle or 4524-E7 (5 mg/kg). A bonus of glucose (2 gm/kg) was injected intraperitoneally 1 hour later. Blood glucose was then measured at 30 min intervals (n=13, *: P<0.05; **: P<0.01, two-way ANOVA).
After a 12 h fasting, C57BL/6J mice were orally administrated with 20 mg/kg of compound in 0.5% methylcellulose, and sacrificed at 3 h, 4 h and 5 h following compound administration. Fat tissues were dissected quickly and frozen on dry ice. Fat lysates were prepared and analyzed by Western blotting.

[2] = system: 3T3-L1 adipocytes; assay: Fatty acid oxidation assay; assay type: cell-based, mouse; details: 100 nM insulin or 5 μM 4524-E7; normalized to DMSO-treated cells
Procedure: (A) 4524-E7 activates IR phosphorylation and its downstream signaling in 3T3-L1 adipocytes. […] The cells were lysed, and immunoprecipitated with PY20, and followed by Western blot using specific antibodies. (B) 4524-E7 stimulates glucose uptake in 3T3-L1 adipocytes. […] [3H]2-deoxyglucose was added, and the cells were further incubated for 10 min. The amount of [3H]2-deoxyglucose taken by adipocytes was measured. (C) 4524-E7 inhibits fatty acid oxidation. […] Results were normalized to DMSO-treated cells and expressed as mean±S.E.M. (*: P<0.05; **:P<0.01, Student's t-test, n=3). (D) IR knockdown in adipocytes decreases IR signaling by 4524-E7. […] Cells lysates were collected and analyzed by Western blot. (E) The glucose uptake induced by 4524-E7 in p85α knockout MEF cells. […] The uptaken [3H] 2-deoxyglucose was monitored by liquid scintillation counter. Results were expressed as mean±S.E.M. (*: P<0.05; **:P<0.01, Student's t-test, n=3).
Fatty acid oxidation was measured by determining the production of 3H2O from [9, 10-3H] palmitate. Differentiated NIH3T3-L1 were plated (0.5×10^5 cell per well) in a 12-well plate for 1 day. […] After incubation, the medium was removed and extracted with Chloroform/Methanol (2:1), and the aqueous phase containing 3H2O was collected and used for radioactivity measurement in a liquid scintillation counter.

[3] = biological target: IR (Homo sapiens, UniProt P06213); assay: Immunoblotting of IR phosphorylation and downstream signaling in CHO-IR cells; assay type: cell-based; design: expressed in transfected cells; host or cells: CHO (CHO-IR, gift from Dr. Nicholas Webster, UCSD)
Sequence of IR (Homo sapiens, UniProt P06213) (P06213 763-1382 limits assumed): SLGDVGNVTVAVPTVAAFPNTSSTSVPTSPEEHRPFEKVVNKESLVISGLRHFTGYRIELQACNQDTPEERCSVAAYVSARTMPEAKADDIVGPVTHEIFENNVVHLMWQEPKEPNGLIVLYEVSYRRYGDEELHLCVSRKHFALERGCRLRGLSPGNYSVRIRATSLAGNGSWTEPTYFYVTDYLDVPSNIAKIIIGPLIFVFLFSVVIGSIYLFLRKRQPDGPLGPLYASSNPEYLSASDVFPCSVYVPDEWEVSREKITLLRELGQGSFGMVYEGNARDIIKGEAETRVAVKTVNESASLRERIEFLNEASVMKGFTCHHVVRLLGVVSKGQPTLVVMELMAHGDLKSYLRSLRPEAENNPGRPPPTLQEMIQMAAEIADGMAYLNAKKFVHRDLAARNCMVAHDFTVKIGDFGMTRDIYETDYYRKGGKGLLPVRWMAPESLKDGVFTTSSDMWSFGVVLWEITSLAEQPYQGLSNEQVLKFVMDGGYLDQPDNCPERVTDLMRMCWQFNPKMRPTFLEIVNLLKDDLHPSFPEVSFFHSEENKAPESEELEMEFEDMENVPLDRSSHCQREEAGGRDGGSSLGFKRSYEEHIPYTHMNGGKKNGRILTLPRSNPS
Sequence of IR (Homo sapiens, UniProt P06213) (P06213 28-758 limits assumed): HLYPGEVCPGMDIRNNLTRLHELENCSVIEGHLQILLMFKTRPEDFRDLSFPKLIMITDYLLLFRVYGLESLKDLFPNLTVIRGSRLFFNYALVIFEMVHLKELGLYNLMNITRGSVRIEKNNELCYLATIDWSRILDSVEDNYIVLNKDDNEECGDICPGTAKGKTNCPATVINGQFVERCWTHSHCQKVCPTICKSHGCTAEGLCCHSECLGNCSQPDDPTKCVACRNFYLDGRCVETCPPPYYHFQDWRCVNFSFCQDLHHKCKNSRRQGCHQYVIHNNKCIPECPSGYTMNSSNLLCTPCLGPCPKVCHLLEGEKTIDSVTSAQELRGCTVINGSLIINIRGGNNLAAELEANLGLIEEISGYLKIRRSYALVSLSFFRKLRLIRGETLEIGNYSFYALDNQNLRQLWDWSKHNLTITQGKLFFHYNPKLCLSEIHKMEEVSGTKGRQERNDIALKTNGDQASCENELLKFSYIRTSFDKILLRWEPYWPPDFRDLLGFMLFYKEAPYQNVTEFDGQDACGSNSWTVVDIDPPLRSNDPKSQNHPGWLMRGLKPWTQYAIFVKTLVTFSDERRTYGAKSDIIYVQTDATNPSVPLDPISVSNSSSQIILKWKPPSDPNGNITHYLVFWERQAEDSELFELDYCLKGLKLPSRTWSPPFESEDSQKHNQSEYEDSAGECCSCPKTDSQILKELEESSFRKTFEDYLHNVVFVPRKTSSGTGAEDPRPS
Procedure: The cell lysates were analyzed by immunoblotting with anti-phospho-IR antibodies, or immunoprecipitated by PY20 and analyzed using anti-IR and anti-IRS-1, respectively. […] The cell lysates were analyzed by immunoblotting with anti-pIGF-1R and anti-pEGFR. […]
A cell-based ELISA assay was developed with an IR stably transfected Chinese Hamster Ovary (CHO-IR) cell line. […] The cell lysates were subjected to the sandwich ELISA using immobilized anti-phosphotyrosine antibody and anti-IR antibody.

Compound	IR tyrosine phosphorylation in the liver, muscle and WAT ([1]; C57BL/6J mice, 20 mg/kg oral, 3 h after administration)	lipid oxidation [2]	concentration activating IR cascade strongly and specifically [3] [µM]	tyrosine phosphorylation on the IR ([3]; 5 μM, 15 min)	IR tyrosine phosphorylation ([3]; 5 μM, 30 min)	concentration at which Erk1/2 activation was detected ([3]; 15 min) [µM]	concentration elevating Akt phosphorylation ([3]; 15 min) [µM]	IR, Akt and ERK activation in liver ([1]; C57BL/6J mice, 5 mg/kg through vena cava, after 5 min)	IR and IRS-1 tyrosine phosphorylation in liver and muscle ([1]; C57BL/6J mice, 20 mg/kg oral)	time until demonstrable IR activation in liver and muscle ([1]; C57BL/6J mice, 20 mg/kg oral gavage) [h]	IR and ERK phosphorylations in liver and muscle ([1]; db/db mice)	time until IR activation in liver and muscle ([1]; injected into blood stream through vena cava) [min]	IR and ERK phosphorylations in liver and muscle ([1]; ob/ob mice)	time at which IR phosphorylation starts ([3]; 5 μM)	tyrosine phosphorylation of IRS-1 ([3]; 5 μM, 15 min)	tyrosine phosphorylation of the IR β subunit in Y1146 and Y1158/1162/1163 ([3]; 5 μM, 15 min)	concentration stimulating the IR signal cascades ([3]; DDN or CSN 30 min, insulin 15 min) [µM]
O=C1c2ccccc2C(=O)C2SC(Nc3ccc(Cl)cc3)=NC12 (stereo not drawn) [4524-E7, 2-((4-chlorophenyl)amino)naphtho[2,3-d]thiazole-4,9(3aH,9aH)-dione]	all elevated	~50 % of the control	1 to 2.5	increased the tyrosine phosphorylation on the IR	triggered IR tyrosine phosphorylation	≥ 5	0.5										
insulin: insulin, used as positive control		~70 % of the control															
CC(=O)Oc1ccc(OC(C)=O)c2c1C(=O)C(Cl)=C(Cl)C2=O [DDN, 5,8-diacetyloxy-2,3-dichloro-1,4-naphthoquinone]								quickly activated IR	confirmed IRS-1 tyrosine phosphorylation in both tissues	3 to 4	enhanced IR and ERK phosphorylations	5	enhanced IR and ERK phosphorylations	5 to 15 min and 5 min	also increased	strongly stimulated	5
